Assay results taken from the supplement of paper PMC12698765.
± gives the standard deviation of the averaged measurements.

Key:
[1] = tested on: 409B2 hiPSC (iCRISPR Cas9, FRMD7 editing); assay: NHEJ-attributed indel frequency relative to solvent control (fold (ratio to mock)); higher = more NHEJ outcomes
Protocol: (§1)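 Subset screen of 55 drugs tested at 5 concentrations around the effective screening dose, in 409B2 iCRISPR Cas9 hiPSCs editing FRMD7 with a ssDNA donor. Drugs were applied for 24 h. Viability was read by resazurin and editing outcomes by amplicon sequencing (HDR, NHEJ <2 bp microhomology, MMEJ ≥2 bp microhomology). Values are relative to solvent mock controls; two biological replicates.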

[2] = tested on: 409B2 hiPSC (iCRISPR Cas9, FRMD7 editing); assay: cell survival relative to solvent control (fold (ratio to mock)); higher = more surviving cells
Protocol: as §1

[3] = tested on: 409B2 hiPSC (iCRISPR Cas9, FRMD7 editing); assay: HDR (precise edit) frequency relative to solvent control (fold (ratio to mock)); higher = more homology-directed repair outcomes
Protocol: as §1

[4] = tested on: 409B2 hiPSC (iCRISPR Cas9, FRMD7 editing); assay: MMEJ-attributed deletion frequency relative to solvent control (fold (ratio to mock)); higher = more MMEJ outcomes
Protocol: as §1

| Compound | NHEJ-attributed indel frequency ([1]; 200 nM) | NHEJ-attributed indel frequency ([1]; 500 nM) | cell survival ([2]; 200 nM) | cell survival ([2]; 500 nM) | HDR ([3]; 200 nM) | HDR ([3]; 500 nM) | MMEJ-attributed deletion frequency ([4]; 200 nM) | MMEJ-attributed deletion frequency ([4]; 500 nM) | NHEJ-attributed indel frequency ([1]; 20 nM) | NHEJ-attributed indel frequency ([1]; 50 nM) | NHEJ-attributed indel frequency ([1]; 100 nM) | cell survival ([2]; 20 nM) | cell survival ([2]; 50 nM) | cell survival ([2]; 100 nM) | HDR ([3]; 20 nM) | HDR ([3]; 50 nM) | HDR ([3]; 100 nM) | MMEJ-attributed deletion frequency ([4]; 20 nM) | MMEJ-attributed deletion frequency ([4]; 50 nM) | MMEJ-attributed deletion frequency ([4]; 100 nM) | also measured |
| --- | --- | --- | --- | --- | --- | --- | --- | --- | --- | --- | --- | --- | --- | --- | --- | --- | --- | --- | --- | --- | --- |
| Oc1cccc(O)c1 [Resorcinol] (in DMSO) | 0.988 ± 0.024 | 0.995 ± 0.0014 | 1.15 | 1.17 | 1.07 ± 0.072 | 1.08 ± 0.038 | 0.916 ± 0.095 | 0.884 ± 0.054 | – | – | – | – | – | – | – | – | – | – | – | – | NHEJ-attributed indel frequency ([1]; 1000 nM): 1 ± 0.043; NHEJ-attributed indel frequency ([1]; 2000 nM): 0.999 ± 0.033; NHEJ-attributed indel frequency ([1]; 5000 nM): 0.99 ± 0.043; cell survival ([2]; 1000 nM): 0.955; cell survival ([2]; 2000 nM): 1.03; cell survival ([2]; 5000 nM): 1.12; HDR ([3]; 1000 nM): 1.11 ± 0.026; HDR ([3]; 2000 nM): 1.07 ± 0.021; HDR ([3]; 5000 nM): 1.06 ± 0.073; MMEJ-attributed deletion frequency ([4]; 1000 nM): 0.824 ± 0.045; MMEJ-attributed deletion frequency ([4]; 2000 nM): 0.934 ± 0.13; MMEJ-attributed deletion frequency ([4]; 5000 nM): 0.922 ± 0.16 |
| CC[C@H](CO)Nc1nc(NCc2ccccc2)c2ncn(C(C)C)c2n1 [Roscovitine (Seliciclib,CYC202)] (in DMSO) | 0.995 ± 0.037 | 1 ± 0.021 | 0.955 | 1.17 | 1.02 ± 0.043 | 1.11 ± 0.049 | 0.943 ± 0.18 | 1 ± 0.058 | 1.004 ± 0.0097 | 1 ± 0.011 | 0.992 ± 0.013 | 1.04 | 1.14 | 0.963 | 1.06 ± 0.024 | 0.983 ± 0.017 | 1.08 ± 0.043 | 0.952 ± 0.12 | 0.912 ± 0.082 | 0.943 ± 0.021 | – |
| CNCc1ccc(-c2[nH]c3cc(F)cc4c3c2CCNC4=O)cc1 [Rucaparib (free base)] (in DMSO) | 0.853 ± 0.045 | 0.787 ± 0.054 | 0.487 | 0.291 | 1.32 ± 0.17 | 1.26 ± 0.037 | 0.869 ± 0.16 | 0.918 ± 0.076 | 0.952 ± 0.015 | 0.924 ± 0.013 | 0.876 ± 0.034 | 0.789 | 0.744 | 0.541 | 1.13 ± 0.035 | 1.302 ± 0.0046 | 1.31 ± 0.071 | 1.04 ± 0.017 | 0.892 ± 0.2 | 0.93 ± 0.079 | – |
| O=C(O[C@H]1CN2CCC1CC2)N1CCc2ccccc2[C@@H]1c1ccccc1 [Solifenacin succinate] (in DMSO) | 0.9657 ± 0.0021 | 0.993 ± 0.015 | 1.04 | 1.16 | 1.14 ± 0.017 | 1.06 ± 0.051 | 0.989 ± 0.091 | 0.991 ± 0.017 | – | – | – | – | – | – | – | – | – | – | – | – | NHEJ-attributed indel frequency ([1]; 1000 nM): 0.999 ± 0.026; NHEJ-attributed indel frequency ([1]; 2000 nM): 1.01 ± 0.017; NHEJ-attributed indel frequency ([1]; 5000 nM): 0.989 ± 0.032; cell survival ([2]; 1000 nM): 0.907; cell survival ([2]; 2000 nM): 1.06; cell survival ([2]; 5000 nM): 1.1; HDR ([3]; 1000 nM): 1.04 ± 0.12; HDR ([3]; 2000 nM): 1.02 ± 0.015; HDR ([3]; 5000 nM): 1.09 ± 0.039; MMEJ-attributed deletion frequency ([4]; 1000 nM): 0.924 ± 0.054; MMEJ-attributed deletion frequency ([4]; 2000 nM): 0.937 ± 0.033; MMEJ-attributed deletion frequency ([4]; 5000 nM): 1.01 ± 0.12 |
| C1CCN2C[C@@H]3C[C@@H](CN4CCCC[C@@H]34)[C@H]2C1 [Sparteine] (in DMSO) | 0.9919 ± 0.0066 | 0.988 ± 0.035 | 1.05 | 1.26 | 1.04 ± 0.051 | 1.02 ± 0.15 | 1.03 ± 0.086 | 0.9904 ± 0.0051 | 0.9845 ± 0.0022 | 0.98809 ± 0.00026 | 1.01 ± 0.011 | 0.978 | 1.24 | 1 | 1.11 ± 0.044 | 1.001 ± 0.0048 | 1.05 ± 0.061 | 0.908 ± 0.028 | 0.866 ± 0.061 | 0.957 ± 0.098 | – |
| CC[N+](CC)(CC)CC [Tetraethylammonium chloride] (in EtOH) | – | – | – | – | – | – | – | – | – | – | – | – | – | – | – | – | – | – | – | – | NHEJ-attributed indel frequency ([1]; 0.2 nM): 0.99 ± 0.026; NHEJ-attributed indel frequency ([1]; 0.5 nM): 0.996 ± 0.018; NHEJ-attributed indel frequency ([1]; 1 nM): 0.99607 ± 0.00072; NHEJ-attributed indel frequency ([1]; 2 nM): 1.007 ± 0.01; NHEJ-attributed indel frequency ([1]; 5 nM): 0.9965 ± 0.0079; cell survival ([2]; 0.2 nM): 0.933; cell survival ([2]; 0.5 nM): 1.09; cell survival ([2]; 1 nM): 0.954; cell survival ([2]; 2 nM): 0.979; cell survival ([2]; 5 nM): 1.03; HDR ([3]; 0.2 nM): 1.11 ± 0.15; HDR ([3]; 0.5 nM): 1.09 ± 0.19; HDR ([3]; 1 nM): 1.02 ± 0.019; HDR ([3]; 2 nM): 0.961 ± 0.11; HDR ([3]; 5 nM): 0.922 ± 0.038; MMEJ-attributed deletion frequency ([4]; 0.2 nM): 1.05 ± 0.022; MMEJ-attributed deletion frequency ([4]; 0.5 nM): 1.03 ± 0.11; MMEJ-attributed deletion frequency ([4]; 1 nM): 0.964 ± 0.1; MMEJ-attributed deletion frequency ([4]; 2 nM): 1.053 ± 0.0031; MMEJ-attributed deletion frequency ([4]; 5 nM): 0.9894 ± 0.0011 |
